The values below come from patent publication US20240424019A1, “SHP1 MODIFIED DENDRITIC CELLS AND EXTRACELLULAR VESICLES DERIVED THEREFROM AND ASSOCIATED METHODS” (BOARD OF REGENTS, THE UNIVERSITY OF TEXAS SYSTEM, priority 2021, published 2024).

The subject of one test is human IFN-γ+CD8+ T cells. Nature of the test: Coculture of human MoDCs with autologous T cells. Type of test: cell-based. Conditions: VitE-treated vs vehicle-treated autologous MoDCs. As to the method: FIG. 2A: Percentage of human IFN-γ^+CD8^+ T cells in CD8^+ T cells in coculture with vehicle or VitE-treated autologous MoDCs (n=3). FIG. 2B: Representative flow cytometric analysis and quantification of antigen-specific OT-1 T cell proliferation stimulated with OVA-loaded mouse BMDCs that were treated with vehicle or VitE at day 3. FIG. 2C: Tumor growth curves of orthotopic EMT6 tumor-bearing mice treated with vehicle (Ctrl), Vitamin E (VitE), or VitE plus Cyt c (10 mg/kg. i.v, every other day starting on day 3) to deplete DCs (n=8/group). The statistical significance is defined by P-value: *P<0.05, **P<0.01, ***P<0.001. ****P<0.0001. Human leukocyte concentrate (buffy coat) was collected from healthy blood donor volunteers by MD Anderson Blood Donor Center. Written informed consent was obtained from all participating blood donors and the use of anonymized leftover specimens for scientific purposes was approved by the Ethics Committee of the MD Anderson Cancer Center. For the generation of monocyte-derived dendritic cells (MoDCs), peripheral blood of healthy individuals was applied to a Ficoll gradient (BD), and mononuclear cells were freshly isolated and cultured in the dish in a humidified incubator for 1 hour to let monocytes adhere. After removing the medium with non-adherent cells, the adherent monocytes were collected through vigorous pipetting. […]

The subject of another test is OT-1 T cells. Kind of test: OT-1 T cell proliferation with OVA-loaded BMDCs. Type of test: cell-based, mouse. The note with it: VitE-treated, OVA-loaded BMDCs vs vehicle, day 3. As to the method:
FIG. 2A: Percentage of human IFN-γ^+CD8^+ T cells in CD8^+ T cells in coculture with vehicle or VitE-treated autologous MoDCs (n=3). FIG. 2B: Representative flow cytometric analysis and quantification of antigen-specific OT-1 T cell proliferation stimulated with OVA-loaded mouse BMDCs that were treated with vehicle or VitE at day 3. FIG. 2C: Tumor growth curves of orthotopic EMT6 tumor-bearing mice treated with vehicle (Ctrl), Vitamin E (VitE), or VitE plus Cyt c (10 mg/kg. i.v, every other day starting on day 3) to deplete DCs (n=8/group). The statistical significance is defined by P-value: *P<0.05, **P<0.01, ***P<0.001. ****P<0.0001.
FIG. 3A: Volcano plot of reverse phase protein array (RPPA) data of mouse BMDCs treated with VitE (50 μg/ml) compared to those treated with vehicle control with tumor conditioned media (TCM) for 48 hours (n=3 independent samples). […] The grey dashed line indicates P-value of 0.05. FIG. 3B: t-SNEs by CyTOF and quantification comparing the intensity of pY564-SHP1 in TADCs from the vehicle-or VitE-treated EMT6 tumors at day 15 post-implantation. FIG. 3C: Top, SHP1 knockdown in BMDCs was effective. […] Right, quantification of OT-1 T-cell numbers under the indicated condition. FIG. 3D: The binding of VitE to purified SHP1 is analyzed by microscale thermophoresis (MST) binding assay. […]

`Cc1c(C)c2c(c(C)c1O)CC[C@@](C)(CCC[C@H](C)CCC[C@H](C)CCCC(C)C)O2` [VitE, D-α-Tocopherol]: in the test on human IFN-γ+CD8+ T cells, the “IFNγ+CD8+ T cells in coculture” value was “increased autologous IFNγ+CD8+ cytotoxic T cells”. In addition, in the test with OT-1 T cells, the “antigen-specific OT-1 T cells in coculture” value was “increased the OVA-derived SIINFEKL antigen-specific OT-1 T cells in coculture”.
